System: BEAS-2B
Test: Cytotoxicity against human BEAS-2B cells assessed as reduction in cell viability at 25 uM measured after 48 hrs by MTT assay
Format: toxicity, cell-based

`O=c1[nH]cc(F)c(=O)[nH]1` [FLUOROURACIL] was tested, and the Activity was “Toxic”.
